This note sets out measurements from patent US20070264674A1, “Cytochrome P450 Induction Assay” (priority 2004, published 2007).

For data set [1], the target named is T1, hCAR (Homo sapiens, UniProt Q14994).
T1 sequence (Q14994 1-348 isoform Q14994-2): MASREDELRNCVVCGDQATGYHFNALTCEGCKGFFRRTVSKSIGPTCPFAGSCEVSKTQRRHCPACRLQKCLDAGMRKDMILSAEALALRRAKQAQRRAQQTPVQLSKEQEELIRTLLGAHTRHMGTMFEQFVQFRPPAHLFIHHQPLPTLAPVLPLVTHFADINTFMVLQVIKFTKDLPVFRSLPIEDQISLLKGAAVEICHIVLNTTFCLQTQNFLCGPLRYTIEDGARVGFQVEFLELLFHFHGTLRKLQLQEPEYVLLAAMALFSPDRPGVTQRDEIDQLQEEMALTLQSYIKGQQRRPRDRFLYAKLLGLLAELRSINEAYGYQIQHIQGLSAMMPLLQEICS
Kind of data set: Primary rat hepatocytes cotransfected with clone 102-SEAP and hCAR. It counts as cell-based. More on the design: expressed in transfected cells; host or cells: primary rat hepatocytes (transient co-transfection, Effectene). The settings on record: 10 μM Rifampicin, 1 μM CITCO, 1 mM Phenobarbital, 48 h. Here is the method: (§1) After four hours, cell culture medium was changed with 1 mL Williams E medium containing Pen/Strep, glutamine and ITS+Premix and the cells were incubated overnight under normal growth condition.
(§2) This was followed by adding 3.2 μL Enhancer and mixing by vortexing for 1 second. […] The cotransfections were followed by adding 3.2 μL Enhancer and mixing by vortexing for 1 second. The transfections/cotransfections were incubated at room temperature for 5 minutes. Then, the mixtures were centrifuged for a few seconds to remove drops from the top of the tube. Next, to each of the mixtures, five μL of Effectene Transfection Reagent was added and the mixtures mixed by vortexing for 10 seconds. The mixtures were then incubated for ten minutes at room temperature to allow transfection complex formation.
(§3) Meanwhile, the growth medium for each of the wells of the 24-well plate containing the cells was removed from the wells and the cells in the wells washed once with 1 mL of growth medium. Then, 350 μL of fresh growth medium was added to each of the wells and 350 μL of growth medium was added to each of the tubes of transfection complexes, which were then mixed and immediately added drop-wise onto the cells in the well. The plates were gently swirled to ensure uniform distribution of the transfection complexes over the cells. […]

Data set [2] addresses T1, hCAR. Briefly: SEAP reporter assay in HepG2 cells co-transfected with human CAR. The class given is cell-based. The settings on record: HepG2 + human CAR (constitutive activation); 48 h; 200 μM Omeprazole, 6 μM Clotrimazole, 125 nM Hyperforin, 12.5 μM Lovastatin, 100 μM N-propyl-p-hydroxy-benzoate. On the set-up: A 1047 bp nucleic acid encoding the human CAR (hCAR) obtained from the RT-PCR; expressed in transfected cells; host or cells: HepG2 (transient co-transfection with the reporter plasmid). The method, then: The NR donor plasmid encoding the human CAR was made as follows. The human CAR was made by RT-PCR from a human liver mRNA preparation. […] The RT-PCR conditions were 15 seconds at 94° C., 30 cycles of 94° C. for 30 seconds followed by 68° C. for 3 minutes, then 68° C. for 3 minutes, and storage at 4° C.
Controls omitted the DNA encoding the human CAR. Additional controls consisted of DNA encoding the human PXR of the previous example.
After incubating the cells 48 hours at 37° C., the medium form wells were collected for SEAP assays. The assays for SEAP expression were performed with Tropix Phospha-Light system kit.

The target in the next data set is T2, hPXR (Homo sapiens, UniProt O75469).
T2 sequence (O75469 1-434): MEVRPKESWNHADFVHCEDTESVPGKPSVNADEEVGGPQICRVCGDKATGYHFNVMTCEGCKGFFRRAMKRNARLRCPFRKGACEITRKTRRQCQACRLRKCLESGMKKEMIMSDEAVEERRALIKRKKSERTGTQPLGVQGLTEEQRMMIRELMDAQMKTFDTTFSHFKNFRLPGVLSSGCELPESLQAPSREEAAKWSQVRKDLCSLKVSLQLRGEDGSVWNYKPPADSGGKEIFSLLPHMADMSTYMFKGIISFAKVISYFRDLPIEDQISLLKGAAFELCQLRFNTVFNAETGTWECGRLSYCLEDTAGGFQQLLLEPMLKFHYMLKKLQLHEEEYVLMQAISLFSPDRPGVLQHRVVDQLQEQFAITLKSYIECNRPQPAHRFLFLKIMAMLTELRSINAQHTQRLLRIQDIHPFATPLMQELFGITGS
Briefly: Primary rat hepatocytes cotransfected with clone 102-SEAP and hPXR. Conditions: 10 μM Rifampicin, 1 μM CITCO, 1 mM Phenobarbital, 48 h. The method, then:
as §1, §2, §3

The test system of data set [3] is endogenous rat CAR or PXR. Briefly: Primary rat hepatocytes transfected with clone 102-SEAP and pUC19 (control, no nuclear receptor). The settings on record: clone 102-SEAP + pUC19, 10 μM Rifampicin, 1 μM CITCO, 1 mM Phenobarbital, 48 h. Here is the method: as §1, §2, §3

Regarding `Clc1ccc(-c2nc3sccn3c2C=NOCc2ccc(Cl)c(Cl)c2)cc1` [CITCO, 6-(4-Chlorophenyl)imidazo[2,1-b][1,3]thiazole-5-carbaldehyde O-(3,4-dichlorobenzyl)oxime], the “induction of clone 102-SEAP expression via hCAR” value at hCAR [1] is “about 4.2 fold”.
With `Clc1ccccc1C(c1ccccc1)(c1ccccc1)n1ccnc1` [Clotrimazole], at hCAR [2], the “effect on transcription from clone 102-SEAP composite promoter” value was “inhibitory effect” and the “effect on transcription from ΔCYP3A4 promoter” value is “inhibitory effect”.
On to `CC[C@H](C)C(=O)O[C@H]1C[C@@H](C)C=C2C=C[C@H](C)[C@H](CC[C@@H]3C[C@@H](O)CC(=O)O3)[C@H]21` [Lovastatin], for which the “effect on transcription from clone 102-SEAP composite promoter” value at hCAR [2] is recorded as “not affected”.
For the compound `CCCOC(=O)c1ccc(O)cc1` [N-propyl-p-hydroxy-benzoate], on hCAR [2], the “effect on transcription from clone 102-SEAP composite promoter” value is “not affected” and the “effect on transcription from ΔCYP3A4 promoter” value was “moderate inhibition”.
Take `CCC1(c2ccccc2)C(=O)NC(=O)NC1=O` [Phenobarbital]: the “induction of clone 102-SEAP expression via hPXR” value at hPXR is reported as “about 3.4 fold”. Also, the “induction of clone 102-SEAP without co-transfected nuclear receptor” value in data set [3] is “no response”.
